According to patent publication US7138361B2, “Herbicidal heterocycles” (E. I. du Pont de Nemours and Company, priority 2000, dated 2006):

Experiments:
Format in all cases: in vivo
[1] = tested on: Surinam grass (Brachiaria decumbens); assay: Test B preemergence
Procedure, shortened: (§1)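 Preemergence: seeds planted and treated with test chemicals in non-phytotoxic solvent with surfactant; postemergence on plants 2–18 cm (1- to 4-leaf stage). Kept in greenhouse 13–15 days, then visually rated against controls on a 0 (no effect) to 100 (complete control) scale.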

[2] = tested on: barnyardgrass (Echinochloa crus-galli); assay: Test B preemergence
Procedure, shortened: as §1

[3] = tested on: cocklebur (Xanthium strumarium); assay: Test B preemergence
Procedure, shortened: as §1

corn (Zea mays) = assay: Test B preemergence
Procedure, shortened: as §1

[4] = tested on: crabgrass (Digitaria sanguinalis); assay: Test B preemergence
Procedure, shortened: as §1

[5] = tested on: giant foxtail (Setaria faberii); assay: Test B preemergence
Procedure, shortened: as §1

[6] = tested on: lambsquarters (Chenopodium album); assay: Test B preemergence
Procedure, shortened: as §1

[7] = tested on: morning glory (Ipomoea hederacea); assay: Test B preemergence
Procedure, shortened: as §1

[8] = tested on: pigweed (Amaranthus retroflexus); assay: Test B preemergence
Procedure, shortened: as §1

rice (Oryza saliva) = assay: Test B preemergence
Procedure, shortened: as §1

[9] = tested on: velvetleaf (Abutilon theophrasti); assay: Test B preemergence
Procedure, shortened: as §1

[10] = tested on: Surinam grass (Brachiaria decumbens); assay: Test C preemergence
Procedure, shortened: (§2)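 Preemergence: seeds sown then treated. Postemergence: plants 2–18 cm, 1- to 4-leaf. Both with surfactant-containing solvent formulation; visual injury scored 0–100 after 12–14 d.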

[11] = tested on: bermudagrass (Cynodon dactylon); assay: Test C preemergence
Procedure, shortened: as §2

[12] = tested on: cocklebur (Xanthium strumarium); assay: Test C preemergence
Procedure, shortened: as §2

[13] = tested on: crabgrass (Digitaria sanguinalis); assay: Test C preemergence
Procedure, shortened: as §2

[14] = tested on: giant foxtail (Setaria faberii); assay: Test C preemergence
Procedure, shortened: as §2

kochia (Kochia scoparia) = assay: Test C preemergence
Procedure, shortened: as §2

[15] = tested on: pigweed (Amaranthus retroflexus); assay: Test C preemergence
Procedure, shortened: as §2

soybean (Glycine max) = assay: Test C preemergence
Procedure, shortened: as §2

[16] = tested on: woolly cupgrass (Eriochloa villosa); assay: Test C preemergence
Procedure, shortened: as §2

Nightshade = assay: Test C preemergence; details: Rate 500 g/ha, visual evaluation after 12 to 14 days
Sunflower = assay: Test C preemergence; details: Rate 250 g/ha, scale 0 to 100, 0 no effect, 100 complete control
[17] = Preemergence, Rate 500 g/ha, scale 0 to 100, 0 no effect, 100 complete control
[18] = preemergence, Rate 125 g/ha, scale of 0 to 100 where 0 is no effect and 100 is complete control, 13 to 15 days
[19] = Rate 125 g/ha, scale 0 to 100, 0 no effect, 100 complete control
[20] = preemergence, Rate 62 g/ha, scale 0 to 100
[21] = preemergence, Rate 500 g/ha, visual evaluation after 12 to 14 days
[22] = preemergence, Rate 250 g/ha, scale 0 to 100, 0 no effect, 100 complete control

## CCCC(C)c1ccn(C2SCN(c3cccc(C(F)(F)F)c3)C2=O)n1 (stereo not drawn) [Compound 92]
[1]; [17]
  Plant response rating, Surinam grass: 70
[1]; [18]
  Plant response rating, Surinam grass: 0
[2]; [17]
  Plant response rating, Barnyardgrass: 100
[2]; [18]
  Plant response rating, Barnyardgrass: 30
[3]; [17]
  Plant response rating, Cocklebur: 0
[3]; [18]
  Plant response rating, Cocklebur: 0
Corn (Zea mays); [17]
  Plant response rating, Corn: 0
Corn (Zea mays); [18]
  Plant response rating, Corn: 0
[4]; [17]
  Plant response rating, Crabgrass: 100
[4]; [18]
  Plant response rating, Crabgrass: 50
[5]; [17]
  Plant response rating, Foxtail, Giant: 100
[5]; [18]
  Plant response rating, Foxtail, Giant: 50
[6]; [17]
  Plant response rating, Lambsquarters: 100
[6]; [18]
  Plant response rating, Lambsquarters: 100
[7]; [17]
  Plant response rating, Morningglory: 0
[7]; [18]
  Plant response rating, Morningglory: 0
[8]; [17]
  Plant response rating, Pigweed: 100
[8]; [18]
  Plant response rating, Pigweed: 80
Rice (Oryza saliva); [17]
  Plant response rating, Rice: 0
Rice (Oryza saliva); [18]
  Plant response rating, Rice: 0
[9]; [17]
  Plant response rating, Velvetleaf: 0
[9]; [18]
  Plant response rating, Velvetleaf: 0
[10]; [19]
  Plant response rating, Surinam grass: 0
[10]; [20]
  Plant response rating, Surinam grass: 0
[10]; [21]
  Plant response rating (0 to 100), Surinam grass: 35
[10]; [22]
  Plant response rating, Surinam grass: 20
[11]; [19]
  Plant response rating, Bermudagrass: 20
[11]; [20]
  Plant response rating, Bermudagrass: 20
[11]; [21]
  Plant response rating (0 to 100 where 0 is no effect and 100 is complete control), Bermudagrass: 90
[11]; [22]
  Plant response rating, Bermudagrass: 85
[12]; [19]
  Plant response rating, Cocklebur: 0
[12]; [20]
  Plant response rating, Cocklebur: 0
[12]; [21]
  Plant response rating (0 to 100), Cocklebur: 20
[12]; [22]
  Plant response rating, Cocklebur: 20
[13]; [19]
  Plant response rating, Crabgrass: 80
[13]; [20]
  Plant response rating, Crabgrass: 60
[13]; [21]
  Plant response rating (0 to 100), Crabgrass: 100
[13]; [22]
  Plant response rating, Crabgrass: 100
[14]; [19]
  Plant response rating, Foxtail, Giant: 0
[14]; [20]
  Plant response rating, Foxtail, Giant: 20
[14]; [21]
  Plant response rating (0 to 100), Foxtail, Giant: 100
[14]; [22]
  Plant response rating, Foxtail, Giant: 100
Kochia (Kochia scoparia); [19]
  Plant response rating, Kochia: 40
Kochia (Kochia scoparia); [20]
  Plant response rating, Kochia: 0
Kochia (Kochia scoparia); [21]
  Plant response rating (0 to 100), Kochia: 100
Kochia (Kochia scoparia); [22]
  Plant response rating, Kochia: 70
[15]; [19]
  Plant response rating, Pigweed: 0
[15]; [20]
  Plant response rating, Pigweed: 0
[15]; [21]
  Plant response rating (0 to 100), Pigweed: 50
[15]; [22]
  Plant response rating, Pigweed: 100
Soybean (Glycine max); [19]
  Plant response rating, Soybean: 0
Soybean (Glycine max); [20]
  Plant response rating, Soybean: 0
Soybean (Glycine max); [21]
  Plant response rating (0 to 100), Soybean: 100
Soybean (Glycine max); [22]
  Plant response rating, Soybean: 30
[16]; [19]
  Plant response rating, Cupgrass, Woolly: 10
[16]; [20]
  Plant response rating, Cupgrass, Woolly: 0
[16]; [21]
  Plant response rating (0 to 100), Cupgrass, Woolly: 50
[16]; [22]
  Plant response rating, Cupgrass, Woolly: 50
Nightshade
  Plant response rating (0 to 100), Nightshade: 80
Sunflower
  Plant response rating, Sunflower: 40
